{"source": "patent US20150105252A1", "about": "“SUBSTITUTED PYRAZOLES AS HERBICIDES” (E I DU PONT DE NEMOURS AND COMPANY, priority 2013, published 2015)", "test_in_all_cases": "Test F preemergence", "key": {"lambsquarters": {"system": "lambsquarters", "format": "in vivo, Chenopodium album", "from_the_text": "(§1) Seeds of plant species selected from corn (Zea mays), soybean (Glycine max), velvetleaf (Abutilon theophrasti), lambsquarters (Chenopodium album), wild poinsettia (Euphorbia heterophylla), pigweed, palmer (palmer pigweed, Amaranthus palmeri), common waterhemp (Amaranthus rudis), surinam grass (Brachiaria decumbens), large crabgrass (Digitaria sanguinalis), crabgrass, Brazil (Brazilian crabgrass, Digitaria horizontalis), fall panicum (Panicum dichotomiflorum), giant foxtail (Setaria faberii), green foxtail (Setaria viridis), goosegrass (Eleusine indica), johnsongrass (Sorghum halepense), common ragweed (Ambrosia elation), barnyardgrass (Echinochloa crus-galli), southern sandbur (Cenchrus echinatus), arrowleaf sida (Sida rhombifolia), Italian ryegrass (Lolium multiflorum), dayflower, VA (Virginia (VA) dayflower, Commelina virginica), field bindweed (Convolvulus arvensis), cocklebur (common cocklebur, Xanthium strumarium), morningglory (Ipomoea coccinea), nightshade (eastern black nightshade, Solanum ptycanthum), kochia (Kochia scoparia), yellow nutsedge (Cyperus esculentus), and hairy beggarticks (Bidens pilosa), were planted into a silt loam soil and treated preemergence with test chemicals formulated in a non-phytotoxic solvent mixture which included a surfactant.\n(§2) At the same time, plants from these crop and weed species and also horseweed (Canada horseweed, Conyza canadensis), smartweed (ladysthumb smartweed, Polygonum persicaria), waterhemp_RES1, (ALS & Triazine resistant common waterhemp, Amaranthus rudis), and waterhemp_RES2, (ALS & HPPD resistant common waterhemp, Amaranthus rudis) were treated with postemergence applications of test chemicals formulated in the same manner. Plants ranged in height from 2 to 18 cm for postemergence treatments (1- to 4-leaf stage). Treated plants and controls were maintained in a greenhouse for 14 to 21 days, after which time all species were compared to controls and visually evaluated. Plant response ratings, summarized in Table F, are based on a scale of 0 to 100 where 0 is no effect and 100 is complete control. A dash (-) response means no test result."}, "wild poinsettia": {"system": "wild poinsettia", "format": "in vivo, Euphorbia heterophylla", "from_the_text": "as §1, §2"}, "large crabgrass": {"system": "large crabgrass", "format": "in vivo, Digitaria sanguinalis", "from_the_text": "as §1, §2"}, "giant foxtail": {"system": "giant foxtail", "format": "in vivo, Setaria faberii", "from_the_text": "as §1, §2"}, "[1]": {"conditions": "Preemergence, 62 g ai/ha, scale 0 to 100"}, "[2]": {"conditions": "Preemergence, 125 g ai/ha, scale 0 to 100"}, "[3]": {"conditions": "preemergence, 8 g ai/ha, scale 0 to 100, 100 is complete control"}, "[4]": {"conditions": "preemergence, 16 g ai/ha, scale 0 to 100, 100 is complete control"}, "[5]": {"conditions": "preemergence, scale 0 to 100, 100 is complete control"}, "[6]": {"conditions": "Preemergence, 31 g ai/ha, scale 0 to 100"}}}
{"compound": "Cc1cc(C(=O)NC(C)C)nn1Cc1ccnc(C(F)(F)F)c1", "note": "[Compound 197]", "values": [{"measurement": "Plant response rating, Lambsquarters", "setting": "lambsquarters; [1]", "value": 35}, {"measurement": "Plant response rating, Lambsquarters", "setting": "lambsquarters; [2]", "value": 80}, {"measurement": "Plant response rating, Lambsquarters", "setting": "lambsquarters; [3]", "value": 0}, {"measurement": "Plant response rating, Lambsquarters", "setting": "lambsquarters; [4]", "value": 35}, {"measurement": "Plant response rating, Wild Poinsettia", "setting": "wild poinsettia; [1]", "value": 35}, {"measurement": "Plant response rating, Wild Poinsettia", "setting": "wild poinsettia; [2]", "value": 60}, {"measurement": "Plant response rating, Wild Poinsettia", "setting": "wild poinsettia; [3]", "value": 5}, {"measurement": "Plant response rating, Wild Poinsettia", "setting": "wild poinsettia; [4]", "value": 0}, {"measurement": "Plant response rating, Large Crabgrass", "setting": "large crabgrass; [1]", "value": 35}, {"measurement": "Plant response rating, Large Crabgrass", "setting": "large crabgrass; [2]", "value": 100}, {"measurement": "Plant response rating, Large Crabgrass", "setting": "large crabgrass; [3]", "value": 0}, {"measurement": "Plant response rating, Large Crabgrass", "setting": "large crabgrass; [4]", "value": 0}, {"measurement": "Plant response rating, Large Crabgrass", "setting": "large crabgrass; [5]", "value": 35}, {"measurement": "Plant response rating, Giant Foxtail", "setting": "giant foxtail; [1]", "value": 20}, {"measurement": "Plant response rating, Giant Foxtail", "setting": "giant foxtail; [2]", "value": 100}, {"measurement": "Plant response rating, Giant Foxtail", "setting": "giant foxtail; [3]", "value": 0}, {"measurement": "Plant response rating, Giant Foxtail", "setting": "giant foxtail; [4]", "value": 0}]}
{"compound": "CCNC(=O)c1cc(CC)n(Cc2ccnc(C(F)(F)F)c2)n1", "note": "[Compound 196]", "values": [{"measurement": "Plant response rating, Lambsquarters", "setting": "lambsquarters; [1]", "value": 98}, {"measurement": "Plant response rating, Lambsquarters", "setting": "lambsquarters; [2]", "value": 100}, {"measurement": "Plant response rating, Lambsquarters", "setting": "lambsquarters; [3]", "value": 0}, {"measurement": "Plant response rating, Lambsquarters", "setting": "lambsquarters; [4]", "value": 5}, {"measurement": "Plant response rating, Wild Poinsettia", "setting": "wild poinsettia; [1]", "value": 35}, {"measurement": "Plant response rating, Wild Poinsettia", "setting": "wild poinsettia; [2]", "value": 65}, {"measurement": "Plant response rating, Wild Poinsettia", "setting": "wild poinsettia; [3]", "value": 0}, {"measurement": "Plant response rating, Wild Poinsettia", "setting": "wild poinsettia; [4]", "value": 5}, {"measurement": "Plant response rating, Large Crabgrass", "setting": "large crabgrass; [1]", "value": 100}, {"measurement": "Plant response rating, Large Crabgrass", "setting": "large crabgrass; [2]", "value": 100}, {"measurement": "Plant response rating, Large Crabgrass", "setting": "large crabgrass; [3]", "value": 35}, {"measurement": "Plant response rating, Large Crabgrass", "setting": "large crabgrass; [4]", "value": 35}, {"measurement": "Plant response rating, Large Crabgrass", "setting": "large crabgrass; [5]", "value": 95}, {"measurement": "Plant response rating, Giant Foxtail", "setting": "giant foxtail; [1]", "value": 70}, {"measurement": "Plant response rating, Giant Foxtail", "setting": "giant foxtail; [2]", "value": 100}, {"measurement": "Plant response rating, Giant Foxtail", "setting": "giant foxtail; [3]", "value": 0}, {"measurement": "Plant response rating, Giant Foxtail", "setting": "giant foxtail; [4]", "value": 0}]}
{"compound": "CCOc1cc(C(=O)NCC(F)(F)F)nn1Cc1ccnc(C(F)(F)F)c1", "note": "[Compound 104]", "values": [{"measurement": "Plant response rating, Lambsquarters", "setting": "lambsquarters; [6]", "value": 100}, {"measurement": "Plant response rating, Lambsquarters", "setting": "lambsquarters; [1]", "value": 100}, {"measurement": "Plant response rating, Lambsquarters", "setting": "lambsquarters; [2]", "value": 100}, {"measurement": "Plant response rating, Lambsquarters", "setting": "lambsquarters; [3]", "value": 35}, {"measurement": "Plant response rating, Lambsquarters", "setting": "lambsquarters; [4]", "value": 60}, {"measurement": "Plant response rating, Wild Poinsettia", "setting": "wild poinsettia; [6]", "value": 15}, {"measurement": "Plant response rating, Wild Poinsettia", "setting": "wild poinsettia; [1]", "value": 80}, {"measurement": "Plant response rating, Wild Poinsettia", "setting": "wild poinsettia; [2]", "value": 98}, {"measurement": "Plant response rating, Wild Poinsettia", "setting": "wild poinsettia; [3]", "value": 0}, {"measurement": "Plant response rating, Wild Poinsettia", "setting": "wild poinsettia; [4]", "value": 10}, {"measurement": "Plant response rating, Large Crabgrass", "setting": "large crabgrass; [6]", "value": 100}, {"measurement": "Plant response rating, Large Crabgrass", "setting": "large crabgrass; [1]", "value": 100}, {"measurement": "Plant response rating, Large Crabgrass", "setting": "large crabgrass; [2]", "value": 100}, {"measurement": "Plant response rating, Large Crabgrass", "setting": "large crabgrass; [3]", "value": 70}, {"measurement": "Plant response rating, Large Crabgrass", "setting": "large crabgrass; [4]", "value": 90}, {"measurement": "Plant response rating, Giant Foxtail", "setting": "giant foxtail; [6]", "value": 100}, {"measurement": "Plant response rating, Giant Foxtail", "setting": "giant foxtail; [1]", "value": 100}, {"measurement": "Plant response rating, Giant Foxtail", "setting": "giant foxtail; [2]", "value": 100}, {"measurement": "Plant response rating, Giant Foxtail", "setting": "giant foxtail; [3]", "value": 25}, {"measurement": "Plant response rating, Giant Foxtail", "setting": "giant foxtail; [4]", "value": 30}]}
